The conditions of data set [1]: cited from earlier work.
For data set [2] the following is noted: cited from earlier work. The source holds these as a separate data set.
For data set [3] the following is noted: non-clinical data; cited from earlier work.
In data set [4] the test system is healthy volunteers and postmenopausal women with osteoporosis. The following applies: cited from earlier work.
For another data set, the system named is subjects with ADH1. The experiment in a line: Phase 2b open-label dose-ranging study, Period 2. It is filed as in vivo, human. The protocol: Period 2: an inpatient stay that consists of 5 dosing days during which subjects will receive BID doses of CLTX-305 based on individual responses from Period 1 (for subjects who complete Period 1) or review of aggregate data from Period 1 (for subjects in Cohort 2 entering Period 2 without prior exposure to CLTX-305). The initial dose, dose level 1 (DL1) will be administered for 2 days (48 hours) with cCa monitoring. Participants will undergo encaleret dose up- or down-titration depending on cCa levels, with a potential increase in dose if cCa remains below the lower limit of normal and potential decrease in dose if cCa is greater than or equal to the upper limit of normal. A final test day (Day 5) will include frequent blood and urine sampling to collect 24-hour PK/PD profiles after at least 3 consecutive days of dosing (at either DL1 or DL2).
In Period 2, eligible Cohort 1 subjects, who have completed Period 1, may return after at least 8 weeks for admission to NIH for Period 2. After all Cohort 1 subjects have finished Period 1 and the data analyzed, the Sponsor will open enrolment for Cohort 2 subjects. Eligible Cohort 2 subjects may enroll directly into Period 2, after completing the screening and consent process per protocol. In Period 2 all subjects will initiate CLTX-305 BID dosing given within 30 minutes prior to breakfast and dinner on Days 1 and 2. cCa concentrations will be monitored frequently throughout Period 2, and CLTX-305 doses will be up- or down-titrated as needed to target normal cCa concentrations. Assessment of the 24-hour PK/PD profile of CLTX-305 with BID dosing will be conducted on Day 5.
As a result, all remaining subjects in Period 2 will receive an initial CLTX-305 90 mg BID dose for at least 3-4 doses for evaluation of safety, tolerability and the ability to modulate cCa levels. The CLTX-305 dose will be up- or down-titrated as needed to maintain cCa levels below 10 mg/dL and blood phosphorus levels above the lower limit of normal. […]

The mark [5] stands for this setting: humans, most single doses or steady-state.
Setting [6] is: not significant when body weight taken into account.

Regarding `Cc1cc(-c2ccccc2[C@@H](C)OC[C@H](O)CNC(C)(C)Cc2ccc(Cl)c(F)c2)ccc1C(=O)O` [CLTX-305, encaleret], the “dose proportionality of plasma concentrations” value in data set [1] (5, 10, 15, 30, 50 and 100 mg, fasted state) is reported as “Dose-proportional increases”. In data set [1] (US population vs. Japanese subjects), the “age-related or race differences in pharmacokinetics” value is listed as “No significant age-related or race differences”. The “half-life of CLTX-305 at steady state” value in data set [1] (as stated in the study assessment section) was 10 to 14 h. In addition, the “food effect on plasma concentrations” value in data set [1] (dose range 5-100 mg) is recorded as “without significant food effect”. For the same compound, in data set [1] (setting [5]), the tmax median was 1.5 h and the tmax range was 45 to 180 min. Moreover, the “elimination half-life (t1/2) after single doses” value in data set [1] (humans, single doses) was “approximately 6.5 hours”. Moreover, in data set [1] (humans, steady state (14 days)), the “elimination half-life (t1/2) at steady state” value was 11 to 14 h. The “excretion of unchanged CLTX-305 and metabolites into urine” value in data set [1] (humans, total of parent and metabolite) is given as < 5%. In data set [1] (setting [6]), the “AUC higher in females” value is “approximately 37%” and the “Cmax higher in females” value is given as ~30%. Further, in data set [1] (once daily (QD) for two weeks, Japanese postmenopausal women), the accumulation entry is “minimal accumulation”. In data set [2], the “increase in AUC0-24 on co-administration with ketoconazole” value is given as “approximately 2 ×” and the “increase in Cmax on co-administration with ketoconazole” value was “approximately 1.67 ×”. Moreover, in data set [3], the “main route of elimination” value is on record as “fecal excretion was the main route of elimination”. In addition, in data set [4] (5-100 mg, non-ADH1 subjects), the “acute safety and tolerability” value was “acutely safe and well tolerated”. In addition, the “safety issues or signals” value in data set [4] (acute dosing up to 100 mg, chronic dosing up to 15 mg QD, over 1300 healthy males and post-menopausal women) is reported as “no specific safety issues or signals were seen”. The “subjects with blood calcium above the upper limit of the laboratory reference range” value in data set [4] (chronic once-daily dosing up to 15 mg, postmenopausal women, long-term trials) is listed as “up to 30%”. In addition, the “serious adverse events related to hyper- or hypocalcemia” value in data set [4] (osteoporosis program, postmenopausal women) is on record as “No serious adverse events (SAEs)”. The “tolerability in humans during chronic treatment” value in data set [4] (up to and beyond 12 months) is on record as “generally well tolerated”. In addition, the serious adverse events result with subjects with ADH1 (Period 2 (Periods 1 and 2)) was “no serious adverse events reported”. Besides, in the data set on subjects with ADH1 (Period 2 (Periods 1 and 2), once or twice daily over 5 days), the tolerability result is “well-tolerated”. Moreover, in the data set with subjects with ADH1 (Period 2, n=13), the “Number of AEs” value was 12 n.

The values are drawn from patent US20220087961A1, “TREATMENT METHODS OF TRIPHENYL CALCILYTIC COMPOUNDS” (CALCILYTIX THERAPEUTICS, INC., priority 2020, published 2022).
